Legend:
[1] = stood at room temperature overnight
Procedure: A method of measurement of the solubility is as follows. After the prescribed amount of the compound was added to each solvent, it was heated by water bath and irradiated supersonic wave for 1 hour. It was stood at room temperature overnight, and filtrated. Obtained residue was dried. Amount of insoluble residue was weighed, and solubility (w/v %) was determined.

[2] = Fluorescence (photoluminescence) intensity in ethanol, fluorescence spectrophotometer RF-5300PC; assay type: physicochemical; conditions: for Fluorescence Intensity / center of Luminous Wave: 25 mg of compound in 100 ml of ethanol; for Relative Value of Fluorescence Intensity, Relative Value (2) (Related to Metal Complex Intermediate 3): metal complex intermediate 3 regarded as 1.00
Procedure: Fluorescence intensity of each obtained compound was measured in order to evaluate fluorescence property.
A method of the evaluation is as follows. 25 mg of each compound was dissolved in 100 ml of ethanol respectively. The fluorescence intensity, photoluminescence intensity, was measured by a fluorescence spectrophotometer RF-5300PC that is available from Shimadzu Corporation. The measured results of the luminous organic compounds 1 to 9 and 11, the comparative compounds 1 to 3 and the metal complex intermediate 1 to 3 are indicated in Table 3. […] The relative value (2) of the fluorescence intensity indicates the value related to the fluorescence intensity of the metal complex intermediate 3 regarded as 1.00.

Row | Compound | Solubility, Ethanol [1] | Solubility, Ethyl Acetate [1] | Solubility, Methyl Ethyl Ketone [1] | Solubility, Toluene [1] | Solubility, Xylene [1] | Relative Value of Fluorescence Intensity, Relative Value (1) (Related to Comparative Compound 3) [2] | Fluorescence Intensity [2] | center of Luminous Wave [2] | Relative Value of Fluorescence Intensity, Relative Value (2) (Related to Metal Complex Intermediate 3) [2]
1 | C[N+](C)(C)CC[N+](C)(C)C.O=C(C=C([O-])C(F)(F)F)c1ccc2ccccc2c1.O=C(C=C([O-])C(F)(F)F)c1ccc2ccccc2c1.O=C(C=C([O-])C(F)(F)F)c1ccc2ccccc2c1.O=C(C=C([O-])C(F)(F)F)c1ccc2ccccc2c1.O=C(C=C([O-])C(F)(F)F)c1ccc2ccccc2c1.O=C(C=C([O-])C(F)(F)F)c1ccc2ccccc2c1.O=C(C=C([O-])C(F)(F)F)c1ccc2ccccc2c1.O=C(C=C([O-])C(F)(F)F)c1ccc2ccccc2c1.[Eu+3].[Eu+3] [Luminous Organic Compound 1] | 0.20 w/v % | over 10.0 w/v % | over 10.0 w/v % | 0.52 w/v % | 0.10 w/v % | 1.31 | 662 | (613 nm) | 1.34
2 | CCCC[N+](C)(C)CCCC[N+](C)(C)CCCC.O=C(C=C([O-])C(F)(F)F)c1ccc2ccccc2c1.O=C(C=C([O-])C(F)(F)F)c1ccc2ccccc2c1.O=C(C=C([O-])C(F)(F)F)c1ccc2ccccc2c1.O=C(C=C([O-])C(F)(F)F)c1ccc2ccccc2c1.O=C(C=C([O-])C(F)(F)F)c1ccc2ccccc2c1.O=C(C=C([O-])C(F)(F)F)c1ccc2ccccc2c1.O=C(C=C([O-])C(F)(F)F)c1ccc2ccccc2c1.O=C(C=C([O-])C(F)(F)F)c1ccc2ccccc2c1.[Eu+3].[Eu+3] [Luminous Organic Compound 6] | 0.14 w/v % | over 10.0 w/v % | over 10.0 w/v % | 3.86 w/v % | 3.22 w/v % | 1.51 | 758 | (613 nm) | 1.53
3 | C[N+](C)(C)c1ccc(-c2ccc([N+](C)(C)C)cc2)cc1.O=C(C=C([O-])C(F)(F)F)c1ccc2ccccc2c1.O=C(C=C([O-])C(F)(F)F)c1ccc2ccccc2c1.O=C(C=C([O-])C(F)(F)F)c1ccc2ccccc2c1.O=C(C=C([O-])C(F)(F)F)c1ccc2ccccc2c1.O=C(C=C([O-])C(F)(F)F)c1ccc2ccccc2c1.O=C(C=C([O-])C(F)(F)F)c1ccc2ccccc2c1.O=C(C=C([O-])C(F)(F)F)c1ccc2ccccc2c1.O=C(C=C([O-])C(F)(F)F)c1ccc2ccccc2c1.[Eu+3].[Eu+3] [Luminous Organic Compound 5] | 0.37 w/v % | 3.46 w/v % | over 10.0 w/v % | 0.30 w/v % | 0.52 w/v % | 1.28 | 644 | – | 1.30
4 | C[N+](C)(C)CCCC[N+](C)(C)C.O=C(C=C([O-])C(F)(F)F)c1ccccc1.O=C(C=C([O-])C(F)(F)F)c1ccccc1.O=C(C=C([O-])C(F)(F)F)c1ccccc1.O=C(C=C([O-])C(F)(F)F)c1ccccc1.O=C(C=C([O-])C(F)(F)F)c1ccccc1.O=C(C=C([O-])C(F)(F)F)c1ccccc1.O=C(C=C([O-])C(F)(F)F)c1ccccc1.O=C(C=C([O-])C(F)(F)F)c1ccccc1.[Eu+3].[Eu+3] [Luminous Organic Compound 9] | 0.11 w/v % | 3.55 w/v % | over 10.0 w/v % | 0.30 w/v % | 0.12 w/v % | 1.00 | 502 | (612 nm) | 1.02
